Four molecules from US20220267734A1, “HETEROGENEOUS STEM CELL POPULATION, PREPARATION METHOD THEREFOR AND USE THEREOF” (INSTITUTE OF BASIC MEDICAL SCIENCES, CHINESE ACADEMY OF …, priority 2019, published 2022) can be followed below.

Test [1] has as its system human brain pericytes (HBPs). Put plainly: q-PCR gene expression in human brain pericytes under IL-1β with or without DAPT or PDTC. To be noted: for gene expression of TIMP-1: among control, IL-1β and IL-1β+inhibitor groups. The format is cell-based. The source says:
We added interleukin 1β (IL-1β) to Transwell in vitro blood-brain barrier model, and cultured human brain microvascular endothelial cells (HBMVECs), human brain pericytes (HBPs) and human brain astrocytes (HBAs) in vitro. We verified HBMVECs, HBPs and HBAs by immunofluorescence staining. Among them, HBMVEC was stained with the antibody against vWF; HBP was stained with the antibodies against α-SMA and NG2, and vWF and GFAP antibodies; and HBA was stained with GFAP antibody (FIG. 8B). […] HBPs were treated with IL-1β for 30 minutes followed by DAPT treatment for 24 hours, and were subjected to q-PCR quantification. It could be seen from FIG. 8E that, compared with the control group, the gene expression of NOTCH3 in the IL-1β group was increased; compared with the IL-1β group, the gene expression of NOTCH3 in the IL-1β+DAPT group was reduced.

For test [2], the system named is subpluripotent stem cells. Put plainly: IRISIN-induced differentiation into beige adipocytes (UCP1 marker). The format is cell-based. To be noted: marker protein UCP1 by real-time fluorescence quantification and western blotting, P<0.05. An excerpt:
In recent years, a new hormone IRISIN has been discovered, which is a muscle factor secreted after exercise. It is released from the cleavage of its precursor—fibronectin III domain containing 5 (Fndc5), and is involved in the function of the muscles, the cardiovascular system, the nerves and energy metabolism. In the process of energy regulation, IRISIN is a potential regulator in sugar metabolism. In this study, we used the heterogeneous stem cell population of the present invention as seed cells, and used IRISIN to induce them to differentiate into beige adipocytes (see FIG. 9).
The adipose tissue was washed twice with D-Hanks' solution containing dual antibiotics (penicillin, streptomycin), and centrifuged at 800 rpm for 3 min. The lower layer of the liquid after washing was removed with a pipette and the adipose tissue was transferred to a new centrifugation tube of 50 ml. 0.2% collagenase P was added for digestion. The tube was incubated in a shaker at a constant temperature of 37° C. for 30 min. An appropriate amount of D-Hanks' solution was added to the digested adipose tissue, which was then filtered with a […] cell sieve to remove undigested tissue. The mixture was centrifuged at 1500 rpm for 10 min. The upper layer of grease was removed with a pipette, then the supernatant was discarded and the cell pellet was re-suspended in D-Hanks' solution and washed once. […]
For orientation: In western blotting, separated proteins are transferred to a membrane and probed.

Where [3] appears, read: IL-1β 30 minutes then inhibitor 24 hours, compared with the IL-1β group.
The mark [4] stands for this setting: IL-1β group compared with the control group.

With `C[C@H](NC(=O)Cc1cc(F)cc(F)c1)C(=O)N[C@H](C(=O)OC(C)(C)C)c1ccccc1` [DAPT], in test [1] (setting [3]), the “gene expression of MMP-9” value was “significantly lower”, the “gene expression of NF-κB p65” value was “significantly reduced” and the “gene expression of NOTCH3” value is recorded as “reduced”. Besides, in test [1], the “gene expression of TIMP-1” value is listed as “did not change much”.
As to “IL-1β: interleukin 1β added to Transwell in vitro blood-brain barrier model”, in test [1] (setting [4]), the “gene expression of MMP-9” value is given as “significantly increased”, the “gene expression of NF-κB p65” value was “significantly increased” and the “gene expression of NOTCH3” value is “increased”.
As to `N.S=C(S)N1CCCC1` [PDTC], the “gene expression of NOTCH3” value in test [1] (setting [3]) was “did not change much”. In test [1], the “gene expression of TIMP-1” value is “did not change significantly”.

B1: IRISIN: muscle factor secreted after exercise, released by cleavage of Fndc5 (protein, UniProt Q8NAU1 1-191, looked up)
Irisin: MQAARGGAGRPERPGRPGRGPERERERPPGAGAASPCAAPGLPAGGATIHPGSPSAWPPRARAALRLWLGCVCFALVQADSPSAPVNVTVRHLKANSAVVSWDVLEDEVVIGFAISQQKKDVRMLRFIQEVNTTTRSCALWDLEEDTEYIVHVQAISIQGQSPASEPVLFKTPREAEKMASKNKDEVTMKE
modifications: Irisin
notes: muscle factor secreted after exercise, released by cleavage of Fndc5
Turning to B1, the “differentiation into beige adipocytes” value in test [2] is “induces the differentiation”.
